Entries after “also recorded” stand apart in the source; their conditions may differ.
Tests used:
[1] = tested on: panel of 24 biotinylated chemokines; test: Phage-display screen of HD2 NNK saturation mutagenesis library; type: binding, human; conditions: HD2 saturation mutants; chemokines on streptavidin beads; UniProt entry names
Text: (§1) FIG. 7. Exemplar results from phage display screens using saturation mutagenesis. A phage-display library was constructed using the HD2 sequence, replacing each residue encoding codon with the degenerate sequence NNK. The 16 degenerate sequences (which also encoded the parental HD2 sequence) were pooled and cloned into display phage. […] Exemplar peptides were selected such that log 2 E for at least one chemokine was greater than 5, and log 2 E for binding to control (CO5, was less than zero). […] The fold enrichment of parental HD2 is also indicated.
as §1, with “A” for “FIG. 7. Exemplar results from phage display screens using saturation mutagenesis. A”
A molecular level understanding of binding mechanism is needed for development of peptides as therapeutics and is usually obtained from structural analyses. As HD2 binds many chemokines this becomes a challenging task, and we explored if we could elucidate this using phage display mutagenesis. The role of each residue in HD2 for binding was examined in phage-display. A library of HD2 mutations that had NNK substituted at each residue and performed phage-display selection against a panel of 24 biotinylated chemokines, in parallel, as described in Example 7. This strategy allowed us to evaluate the impact not only of Ala substitutions, but also conservative, hydrophilic and hydrophobic substitutions, and compare with binding of parental HD2 which is also included in the library. Ala substitution removes side-chains beyond the β-carbon and can be used to infer the role of side-chain functional groups without affecting conformational flexibility of the backbone. […] These residues are within the two motifs identified previously. Other notable residues identified were Y8 and P10. We next judged the impact of Ala mutation by calculating the change in log 2 E (Δlog 2 E) between the mutant and parental HD2. A positive value of Δlog 2 E indicates increased binding, and a negative value decreased binding compared to parental HD2. […] As may be seen, the log 2 E for the parental HD2 was ~0 in these analyses indicating lack of enrichment.
Oligonucleotide pools were amplified using primers: oligo_fwd: 5′-[…] and oligo_rev2: 5′-tcgtcaccctcggcgcctcctcoggatcctccacc. Oligonucleotide PCR products were cloned into plasmid prSTOP4Nsi using NEB Builder HiFi Assembly following instructions of the manufacturer. The vector pool was used to transform electrocompetent Invitrogen ElectroMAX™ DH5α-E™ cells. Plasmid DNA was harvested by MaxiPrep (GeneJet Plasmid Maxiprep Kit) and was transformed into SS320 phage display electrocompetent cells (Lucigen), following the manufacturer's protocol, resuspended in 950 μL recovery media for each electroporation, transferred to 50 mL Falcon tubes, 100 μL 1011 CFU/mL M13KO7 helper phage (NEB) added and shaken at 37° C., 220 RPM for 1 h. 1 mL recovery culture was added to 2YT medium containing +50 ug/mL carbenicillin and 25 ug/mL kanamycin, and grown overnight at 37C, 220 rpm. Phage was precipitated from the culture supernatant by adding 22.5 mL of supernatant to 4.5 mL 20% PEG 8000/2.5 M NaCl, incubating on ice for 30 min, and centrifuging at 10,000 RPM, 4° C. for 10 min, and resuspending phage in 1 ml of PBT, followed by centrifugation at 13000 RPM, 4° C., for 10 min. […]

[2] = target: T1, CCL3 (Homo sapiens, UniProt P10147); test: CCL3-induced THP-1 cell migration, transwell assay; type: cell-based; conditions: HD2 mutant peptides 10 μM, chemokine at EC80
T1 construct: purchased Peprotech
T1 sequence (P10147 24-92): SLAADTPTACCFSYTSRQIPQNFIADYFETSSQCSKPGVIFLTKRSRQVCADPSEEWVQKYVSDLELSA
Experimental: FIG. 2. […] BK1.2 is described in (Darlot, 2020). […] Chemokines used are indicated by the name, followed in parenthesis by the supplier code (P in supplier code indicates Peprotech). […] All experiments were performed at EC80 doses of indicated chemokine. Data are shown as box-whisker plots of three technical and three biological replicates. Statistically significant differences (compared to control, indicated by #), using Dunnett's test with correction for multiple comparisons, are indicated by asterisks: ****=P≤0.0001, ***=P≤0.001, **=P≤0.01, *=P≤0.05.
Briefly, cell migration assays use THP1 cells (human monocyte) and primary human buffy coat white cells (consisting of neutrophil granulocytes, monocytes, and lymphocytes), and activated T-cells. […] Assays are performed in 96-well Boyden chambers, and migrated cells counted and characterized using and ATTUNE Flow Cytometer as described. […]
The J:CXCR1 cell line was generated by transfecting Jurkat cells by electroporation with PvuI-linearized plasmid D1398 and selecting with blasticidin (Sigma-Aldrich, Cat #203350, 5 g/mL). […] Cell counts were determined by Attune NxT Flow Cytometer Plate Reader (ThermoFisher), based on cell size parameters FSC-H/SSC-H. Experiments were performed in 3 technical and 3 biological replicates. […] Statistical significances between control experimental groups was evaluated using Dunnett's test. […]

EEDDYTAYAPLWCYFT [HD2_W12]
Chemokines Bound log2E 1-5 [1]: CCL1, CCL15, CCL17, CCL18,; also recorded: CCL19, CCL20, CCL22, CCL25,; also recorded: CCL28, CCL4, X3CL1, SDF1,; also recorded: CXL14 | Chemokines Bound log2E > 5 [1]: CCL3 | chemotaxis compared with the parental HD2 peptide [2]: significant reduction in chemotaxis

Source: patent publication US20260234188A1, “CHEMOKINE-BINDING PEPTIDES” (Oxford University Innovation Limited, priority 2022, published 2026)
